Laboratory results: US8329420B2, “Screening method for a substance that binds to an intracellular region of TLR4” (Hiroshima University, priority 2006, dated 2012)

Legend:
[1] = biological target: T1, TLR4 (wild-type and point mutants, TLR4 C747A) (Homo sapiens, UniProt O00206); assay: NF-κB luciferase reporter assay in HEK293 cells expressing wild-type or mutant TLR4 after LPS stimulation; assay type: cell-based; set-up: expressed in transfected cells; host or cells: HEK293 (human embryonic kidney); conditions: concluded from reporter assay with TLR4 mutants, HEK293 (FIG. 3)
T1 sequence (O00206 24-839 C747A): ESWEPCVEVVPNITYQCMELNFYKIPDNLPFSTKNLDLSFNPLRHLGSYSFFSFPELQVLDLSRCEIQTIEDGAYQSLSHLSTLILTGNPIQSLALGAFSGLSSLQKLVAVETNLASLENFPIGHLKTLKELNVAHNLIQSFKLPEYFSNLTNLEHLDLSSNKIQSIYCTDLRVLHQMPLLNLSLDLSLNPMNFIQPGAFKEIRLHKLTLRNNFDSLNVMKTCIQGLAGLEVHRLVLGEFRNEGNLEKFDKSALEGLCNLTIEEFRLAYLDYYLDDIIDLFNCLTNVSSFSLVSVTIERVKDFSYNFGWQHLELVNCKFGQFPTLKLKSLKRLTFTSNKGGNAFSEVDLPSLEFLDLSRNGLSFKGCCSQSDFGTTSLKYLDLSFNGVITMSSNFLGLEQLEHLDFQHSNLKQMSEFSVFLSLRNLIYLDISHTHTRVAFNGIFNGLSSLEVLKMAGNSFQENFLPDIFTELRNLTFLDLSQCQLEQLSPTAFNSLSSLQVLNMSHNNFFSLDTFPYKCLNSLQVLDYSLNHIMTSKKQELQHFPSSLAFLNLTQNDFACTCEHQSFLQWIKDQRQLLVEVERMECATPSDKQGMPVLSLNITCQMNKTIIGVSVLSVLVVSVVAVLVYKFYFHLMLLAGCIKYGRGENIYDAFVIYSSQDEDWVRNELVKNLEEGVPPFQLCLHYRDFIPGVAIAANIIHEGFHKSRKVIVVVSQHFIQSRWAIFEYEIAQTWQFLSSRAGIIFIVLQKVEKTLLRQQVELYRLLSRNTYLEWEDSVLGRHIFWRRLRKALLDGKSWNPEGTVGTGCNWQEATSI
Procedure: (§1) Human embryonic kidney-derived HEK293 was suspended in DMEM containing 10% FCS, plated in a 96 well plate at 2×10^4 cells/well and cultured overnight at 37° C., 5% CO2. The medium was changed to OPTI-MEM (Invitrogen, 50 μL/well) immediately before transfection. A plasmid encoding FLAG-TLR4WT or a mutant thereof (0CA-3CA, PH, 1KR-9KR) was added to 0.5 ng/well, and transfection was performed using a PLUS reagent (Invitrogen) or a LipofectAMINE reagent (Invitrogen) according to a conventional method. The cells were cultured at 37° C., 5% CO2 for 3 hr. After culture, DMEM containing 20% FCS was added to 100 μL/well, and the cells were further cultured overnight to give forced expression cells. As common DNAs, pNiFty (plasmid for NF-κB activation measurement, 15 ng/well), phRL-TK (internal standard plasmid, 15 ng/well), MD-2 plasmid (10 ng/well) and CD14 plasmid (10 ng/well) were transfected together with wild-type TLR4 and each mutant.
(§2) The next day of the transfection, the medium of the forced expression cells was changed to DMEM containing 1% FCS, compound A (ethyl (6R)-6-[N-(2-chloro-4-fluorophenyl)sulfamoyl]-1-cyclohexene-1-carboxylate), compound B (d-ethyl 6-[N-(2,4-difluorophenyl)sulfamoyl]-1-cyclohexene-1-carboxylate), compound C (ethyl 6-[N-(2-bromo-4-fluorophenyl)sulfamoyl]-1-cyclohexene-1-carboxylate), compound D (d-ethyl 6-[(2-chloro-4-fluorobenzyl)sulfonyl]-1-cyclohexene-1-carboxylate) were added to the final concentration of 0, 30, 100, 300 nmol/L and the cells were cultured for 2 hr at 37° C., 5% CO2. LPS was added to 100 ng/mL, and the cells were further cultured for 4 hr. After culture, the luminescence of luciferase was measured using Dual-Glo™ Luciferase Assay System (Promega). For the measurement, the luminescence of firefly luciferase (derived from FL, NF-κB activation) and renilla luciferase (RL, internal standard) was measured, and CPS (counts per second) of FL was amended by CPS of RL to give FL/RL ratio.

[2] = biological target: T2, TLR4 (wild-type and point mutants, TLR4 C747A) (Homo sapiens, UniProt O00206, C747A); assay: as above; assay type: cell-based; set-up: expressed in transfected cells; host or cells: HEK293 (human embryonic kidney); conditions: 0, 30, 100, 300 nmol/L, 2 hr, then LPS 100 ng/mL 4 hr; HEK293; FL/RL ratio; only this mutant (FIG. 3)
T2 sequence (O00206 24-839 C747A): as above
Procedure: as §1, §2

[3] = biological target: T3, GST-TLR4 intracellular TIR domain fusion protein (Homo sapiens, UniProt O00206); assay: Pull-down of GST fusion protein-bound beads with ^3H-compound A, SDS-PAGE, autoradiography; assay type: binding; conditions: beads reacted at 4° C. overnight; autoradiography (FIG. 1B)
T3 construct: made in house; host or cells: Escherichia coli
T3 sequence (O00206 674-839): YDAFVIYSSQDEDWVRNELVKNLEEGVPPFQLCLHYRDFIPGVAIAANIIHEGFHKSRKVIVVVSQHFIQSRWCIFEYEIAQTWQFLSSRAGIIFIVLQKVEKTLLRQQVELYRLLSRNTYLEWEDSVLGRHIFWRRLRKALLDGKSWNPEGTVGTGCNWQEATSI
Procedure: (§3) Using the above-mentioned primer DNA and TAKARA Ex Taq and after first standing at 95° C. for 2 min in a thermal cycler, PCR was performed 30 cycles with 95° C. for 30 sec, at 55° C. for 30 sec and at 72° C. for 1 min as one cycle. Lastly, an elongation reaction was performed at 72° C. for 10 min. The amplified DNA fragment was cloned using a TA Cloning Kit (Invitrogen). The obtained plasmid vector was treated with a restriction enzyme and electrophoresed on agarose gel. The band was cleaved out using a Sephaglas B and Prep Kit (Amersham) and purified. This was inserted as an insert into vector plasmid pGEX-4T-1 (Amersham) using DNA ligation kit Ver.2 (TAKARA).
(§4) Escherichia coli was transformed with the completed plasmid, and cultured in LB medium containing ampicillin (10 mL) at 37° C. for 18 hr. Culture medium (2.4 mL) was inoculated to LB medium containing ampicillin (130 mL), and subjected to shaking culture. When OD600 became amount 0.9, isopropyl-β-D-thiogalactopyranoside (1 mol/L) was added (130 μL), and the mixture was cultivated at 30° C. for 4 hr. After cultivation, the cells were collected and 10 mL of Lysis Buffer (10 mmol/L Tris pH 7.5, […], 0.5% triton-X-100, 1 mmolp/L PMSF) was added. The cells were disrupted by ultrasonication and centrifuged. To the obtained supernatant was added Glutathione Sepharose 4B (Amersham, 300 μL), and the mixture was gently shaken at 4° C. for 60 min. After the reaction, GST fusion protein-bound beads were washed with TBS (Tris buffered saline, 50 mM Tris-HCl pH7.5, 150 mM NaCl) added with 0.1% Triton X-100.
(§5) The completed GST fusion protein-bound beads and ^3H-compound A (synthesized by Amersham) were reacted at 4° C. overnight. After the reaction, the beads were washed with 0.1% Triton X-100 added TBS, a sample buffer for 5% 2-mercaptoethanol (ME)-containing sodium dodecyl sulfate (SDS)-polyacrylamide gel electrophoresis (PAGE) was added, and the mixture was heated at 100° C. for 5-10 min. The mixture was centrifuged, the supernatant was separated as a labeled protein sample, and the protein was separated by SDS-PAGE. […]

GST-TIRAP fusion protein = biological target: T4, GST-TIRAP fusion protein (Homo sapiens, UniProt P58753); assay: as above; assay type: binding; conditions: beads reacted at 4° C. overnight; autoradiography (FIG. 1B)
T4 construct: made in house; host or cells: Escherichia coli
T4 sequence (P58753 1-235 isoform P58753-2): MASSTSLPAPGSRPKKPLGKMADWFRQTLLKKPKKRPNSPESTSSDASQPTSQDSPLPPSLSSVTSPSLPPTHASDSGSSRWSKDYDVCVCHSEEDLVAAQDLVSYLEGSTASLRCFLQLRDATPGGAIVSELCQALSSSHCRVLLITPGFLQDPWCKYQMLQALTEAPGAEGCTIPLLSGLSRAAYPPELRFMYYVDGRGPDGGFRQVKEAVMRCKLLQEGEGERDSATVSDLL
Procedure: as §3, §4, §5

[4] = biological target: T5, GST-TLR2 intracellular TIR domain fusion protein (Homo sapiens, UniProt O60603); assay: as above; assay type: binding; conditions: beads reacted at 4° C. overnight; autoradiography (FIG. 1B)
T5 construct: GST and TIR domain of TLR2; made in house; host or cells: Escherichia coli
T5 sequence (O60603 639-782 limits assumed): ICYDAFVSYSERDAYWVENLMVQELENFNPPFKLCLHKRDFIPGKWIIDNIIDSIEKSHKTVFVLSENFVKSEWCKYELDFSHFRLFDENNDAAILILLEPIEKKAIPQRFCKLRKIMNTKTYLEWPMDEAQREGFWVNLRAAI
Procedure: as §3, §4, §5

[5] = biological target: T1, TLR4 (wild-type and point mutants, TLR4 C747A); assay: Binding of ^3H-compound A to FLAG-TLR4 wild-type and point mutants expressed in COS-7 cells (anti-FLAG immunoprecipitation, autoradiography); set-up: expressed in transfected cells; conditions: concluded from mutant binding, COS-7 cells (FIG. 2)
Source text: (§6) cDNA encoding TLR4 was obtained by a conventional method using PCR, and incorporated into expression vector pEFBos. Each point mutant was produced using QuikChange II Site-directed Mutagenesis Kit (manufactured by Stratagene). A mismatch corresponding to a mutation was introduced into both ends of a primer according to the manual of the kit. The produced primers are as follows (mutant introduction sites are underlined). Thereafter, a mutant was produced according to the manual and a competent cell was transformed therewith. Single colonies were picked up, a plasmid was prepared according to a conventional method and DNA sequence was confirmed to give a plasmid containing each mutant TLR4.
(§7) Escherichia coli was transformed with the produced plasmids, about 500-700 μg thereof was each purified using EndoFree (R) Plasmid Maxi Kit (Quiagen). […]
(§8) The immunoprecipitated was applied to SDS-PAGE to separate the protein, and the gel after migration was immersed in a blotting buffer for 15 min to remove SDS. […] The luminescence of the band was photographed on an X ray film, Kodak Biomax-MS, and the protein expression level was confirmed (FIG. 2; the upper panel). The photographed PVDF membrane was washed with PBS-T, photosensitized on imaging plate TR-2040 for 7 days, and the amount of ^3H bound to the expressed protein was measured using BAS-2500 (FUJIFILM Corporation).

[6] = biological target: T2, TLR4 (wild-type and point mutants, TLR4 C747A); assay: as above; set-up: expressed in transfected cells; conditions: 100 nmol/L, 6 hr, COS-7 cells; only this mutant among 1CA-4CA, PH, 1KR-9KR (FIG. 2)
Source text: as §6, §7, §8

Row | SMILES | binding site in TLR4 through which the signal is suppressed [1] | signal suppressing action when 747th cysteine of TLR4 mutated to alanine [2] | binding of ^3H-compound A to GST-TLR4 intracellular TIR domain fusion protein [3] | binding of ^3H-compound A to GST-TIRAP fusion protein (GST-TIRAP fusion protein) | binding of ^3H-compound A to GST-TLR2 intracellular TIR domain fusion protein [4] | binding site of compound A in TLR4 [5] | binding amount of ^3H-compound A to TLR4 with 747th cysteine mutated to alanine [6]
1 | CCOC(=O)C1=CCCCC1S(=O)(=O)Cc1ccc(F)cc1Cl (stereo not drawn) [compound D, d-ethyl 6-[(2-chloro-4-fluorobenzyl)sulfonyl]-1-cyclohexene-1-carboxylate] | selectively bind to the 747th cysteine | disappeared |  |  |  |  | 
2 | CCOC(=O)C1=CCCC[C@H]1S(=O)(=O)Nc1ccc(F)cc1Cl [compound A, ethyl (6R)-6-[N-(2-chloro-4-fluorophenyl)sulfamoyl]-1-cyclohexene-1-carboxylate] | selectively bind to the 747th cysteine | disappeared | selectively bound | not bound | not bound | selectively bound to the 747th cysteine | remarkably decreased
3 | CCOC(=O)C1=CCCCC1S(=O)(=O)Nc1ccc(F)cc1F (stereo not drawn) [compound B, d-ethyl 6-[N-(2,4-difluorophenyl)sulfamoyl]-1-cyclohexene-1-carboxylate] | selectively bind to the 747th cysteine | disappeared |  |  |  |  | 
4 | CCOC(=O)C1=CCCCC1S(=O)(=O)Nc1ccc(F)cc1Br (stereo not shown) [compound C, ethyl 6-[N-(2-bromo-4-fluorophenyl)sulfamoyl]-1-cyclohexene-1-carboxylate] | selectively bind to the 747th cysteine | disappeared |  |  |  |  | 
